Experimental data: paper PMC3285450 (Journal of Medicinal Chemistry, 2010)

Columns and labels:
Human sEH = target: T1, Human sEH (Homo sapiens, UniProt P34913); conditions: for improved potency over compound 40: versus compound 40, reached the LOQ of the in vitro assay
T1 sequence (P34913 1-555): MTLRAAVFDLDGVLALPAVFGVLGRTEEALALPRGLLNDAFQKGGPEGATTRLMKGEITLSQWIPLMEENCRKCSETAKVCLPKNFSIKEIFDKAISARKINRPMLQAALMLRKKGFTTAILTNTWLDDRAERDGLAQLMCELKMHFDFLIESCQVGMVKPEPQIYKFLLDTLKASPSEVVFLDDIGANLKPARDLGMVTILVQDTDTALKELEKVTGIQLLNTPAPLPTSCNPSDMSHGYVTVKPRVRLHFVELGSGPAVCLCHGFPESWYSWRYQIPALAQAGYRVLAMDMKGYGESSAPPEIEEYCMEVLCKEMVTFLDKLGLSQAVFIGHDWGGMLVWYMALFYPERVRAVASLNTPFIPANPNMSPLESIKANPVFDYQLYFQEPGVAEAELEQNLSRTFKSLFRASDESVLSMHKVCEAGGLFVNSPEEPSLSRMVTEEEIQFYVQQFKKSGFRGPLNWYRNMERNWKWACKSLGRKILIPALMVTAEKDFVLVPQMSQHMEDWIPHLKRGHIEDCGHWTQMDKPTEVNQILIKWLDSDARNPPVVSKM

hydrolytic stability = assay type: physicochemical
[1] = pharmacokinetic screening by oral cassette dosing in mice; conditions: blood pharmacokinetic profile, Figure S3
in vivo = conditions: male, CFW, mouse, po, 5 mg/kg
[2] = tested on: carrageenan induced inflammatory pain; assay type: in vivo, Male Sprague-Dawley rats; conditions: for reversal of carrageenan induced pain (mechanical withdrawal threshold): rats, intraplantar, 3 hr after carrageenan, sEHi 10 ng/paw, morphine 10,000 ng/paw, n=6
murine sEH = target: T2, murine sEH (Mus musculus, UniProt P34914); assay: fluorescent
T2 sequence (P34914 1-554): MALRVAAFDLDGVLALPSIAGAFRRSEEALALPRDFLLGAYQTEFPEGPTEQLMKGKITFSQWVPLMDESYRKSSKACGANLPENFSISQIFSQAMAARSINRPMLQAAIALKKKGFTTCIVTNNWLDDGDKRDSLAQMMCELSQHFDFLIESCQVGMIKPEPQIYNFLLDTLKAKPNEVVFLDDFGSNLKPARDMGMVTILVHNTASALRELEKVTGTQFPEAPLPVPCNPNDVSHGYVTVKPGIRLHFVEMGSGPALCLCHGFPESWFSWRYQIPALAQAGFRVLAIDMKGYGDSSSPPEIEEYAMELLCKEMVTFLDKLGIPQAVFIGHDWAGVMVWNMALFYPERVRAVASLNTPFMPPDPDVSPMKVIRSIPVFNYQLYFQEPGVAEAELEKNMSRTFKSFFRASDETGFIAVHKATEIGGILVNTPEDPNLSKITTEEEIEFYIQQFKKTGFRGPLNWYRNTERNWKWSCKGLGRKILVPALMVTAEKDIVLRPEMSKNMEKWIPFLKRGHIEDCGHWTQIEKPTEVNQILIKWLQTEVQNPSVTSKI

O=C(Nc1ccc(OC(F)(F)F)cc1)NC1CCN(C(=O)C(F)(F)F)CC1 [Compound 53]
improved potency over compound 40 (Human sEH): approximately 9 fold | hydrolytic stability (hydrolytic stability): hydrolytic instability

CC(=O)N1CCC(NC(=O)NC23CC4CC(CC(C4)C2)C3)CC1 [APAU]
AUC [1]: small | halflife [1]: very short

O=C(O)CCCCCCCCCCCNC(=O)NC12CC3CC(CC(C3)C1)C2 [AUDA, 12-(3-adamantane-1-yl-ureido)dodecanoic acid, reference compound]
AUC(0-t) (in vivo): 0.05 µM·h

CN1CC[C@]23c4c5ccc(O)c4O[C@H]2[C@@H](O)C=C[C@H]3[C@H]1C5 [morphine, reference compound]
reversal of carrageenan induced pain (mechanical withdrawal threshold) [2]: significantly reversed carrageenan induced pain

O=C(Nc1ccc(OC(F)(F)F)cc1)NC1CCN(C(=O)C2CC2)CC1 [Compound 52, 1-(1-(cyclopropanecarbonyl)piperidin-4-yl)-3-(4-(trifluoromethoxy)phenyl)urea]
increase in potency compared to morphine, reducing hyperalgesia ([2]; mechanical withdrawal threshold, carrageenan model): 1000 fold | reversal of carrageenan induced pain (mechanical withdrawal threshold) [2]: significantly reversed carrageenan induced pain | increase in potency over adamantane analogue 2 (Human sEH; versus compound 2): 7 fold | improved potency over compound 40 (Human sEH): approximately 9 fold | improvement from AUDA, exposure in murine blood and murine potency data (murine sEH; Figure S5, versus AUDA): 10^5 | AUC(0-t) (in vivo): 164 µM·h | Cmax (in vivo): 8.9 µM | Tmax (in vivo): 3.17 h | half-life (in vivo): 19.7 h

CCC(=O)N1CCC(NC(=O)Nc2ccccc2)CC1 [Compound 7]
drop in potency against the human enzyme versus cyclohexyl compound 4 (Human sEH; versus compound 4): 11 fold

CCC(=O)N1CCC(NC(=O)Nc2cccc(F)c2)CC1 [Compound 28]
lower IC50 than para-fluorophenyl 24, human enzyme (Human sEH; versus compound 24): 2 fold | lower IC50 than para-fluorophenyl 24, murine enzyme (murine sEH; versus compound 24): 5 fold
